Results on twelve compounds are retold here after paper PMC8838982 (Bioorganic chemistry, 2021).

Assay [1] has as its target Pandemic H1N1 N-terminal PA endonuclease (PAN) (Influenza A virus, UniProt C3W5S0). Nature of the assay: FRET-based. The class given is biochemical.
In assay [2] the target is influenza virus polymerase (Influenza A virus, UniProt P03433). Nature of the assay: cell-based. The class given is cell-based, influenza virus A/PR/8/34.
Setting [3] is: Inhibition of polymerase activity EC50.
Where [4] appears, read: read-out: Inhibition of polymerase activity EC50.

Like-named read-outs stand apart in the source and are kept apart here.

Consider `O=C1c2c(ccc(O)c2O)CN1Cc1ccccc1` [Compound 14, 2-benzyl-6,7-dihydroxyisoindolin-1-one], for which the IC50 (usually the concentration at which inhibition is half-maximal) in assay [1] was 0.023 to 0.046 µM. The concentration giving a half-maximal response (EC50) (in general, the midpoint of the concentration-response curve) in assay [2] (setting [3]) came out at 12 µM.

In the case of `O=C1c2c(ccc(O)c2O)CN1Cc1ccc(F)c(Cl)c1` [Compound 15, 2-(3-chloro-4-fluorobenzyl)-6,7-dihydroxyisoindolin-1-one], in assay [1], the IC50 was 0.023 to 0.046 µM. The “EC50/IC50 ratio (cellular versus enzyme assay)” value in assay [2] amounted to 145. This compound displayed a half-maximal effective concentration (EC50) in assay [2] (setting [3]) of 3.6 µM.

With `Cc1ccc(CN2Cc3ccc(O)c(O)c3C2=O)cc1` [Compound 16, 2-(4-methylbenzyl)-6,7-dihydroxy-isoindolin-1-one], in assay [2] (setting [4]), the concentration giving a half-maximal response (EC50) worked out at 4.1 µM.

Turning to `O=C1c2c(ccc(O)c2O)CN1Cc1ccc(O)cc1` [Compound 17, 2-(4-hydroxybenzyl)-6,7-dihydroxy-isoindolin-1-one], in assay [1], the half-maximal inhibitory concentration (IC50) fell in the range of 0.023 to 0.046 µM. Moreover, the “Fold increase in EC50 compared to wild-type” value in assay [2] was 1.0 fold. The midpoint of the response in assay [2] (setting [3]), the EC50, lay at 4.2 µM.

In turn, `O=C1c2c(ccc(O)c2O)CN1Cc1ccc(F)cc1` [Compound 18, 2-(4-fluorobenzyl)-6,7-dihydroxyisoindolin-1-one] yielded a concentration for half-maximal inhibition (IC50) in assay [1] of 0.023 to 0.046 µM. The half-maximal effective concentration (EC50) in assay [2] (setting [3]) was found to be 8.2 µM.

As to `O=C1c2c(ccc(O)c2O)CN1Cc1ccc(C(F)(F)F)cc1` [Compound 19, 2-(4-(trifluoromethyl)benzyl)-6,7-dihydroxy-isoindolin-1-one], the “Reduction of PAN inhibitory activity compared to the 4-F analogue 18” value in assay [1] (factor, relative to 18) stood at 9 fold. In assay [2] (setting [3]), the EC50 was determined as 19 µM.

For `O=C1c2c(ccc(O)c2O)CN1Cc1ccc([N+](=O)[O-])cc1` [Compound 20, 2-(4-nitrobenzyl)-6,7-dihydroxy-isoindolin-1-one], in assay [1], the IC50 is 0.023 to 0.046 µM. The compound also showed a 50% effective concentration (EC50) in assay [2] (setting [3]) of 28 µM.

In assay [1], `O=C1c2c(ccc(O)c2O)CN1Cc1ccc2ccccc2c1` [Compound 21, 2-(naphthalen-2-ylmethyl)-6,7-dihydroxy-isoindolin-1-one] gave a half-inhibitory concentration (IC50) of 0.03 µM. This compound gave an EC50 in assay [2] (setting [3]) of 5.4 µM.

`O=C1c2c(ccc(O)c2O)CN1Cc1cccc2ccccc12` [Compound 22, 2-(naphthalen-1-ylmethyl)-6,7-dihydroxy-isoindolin-1-one] had an EC50 in assay [2] (setting [3]) of 26 µM.

Take `O=C1c2c(ccc(O)c2O)CN1CCc1ccc(O)cc1` [Compound 23, 2-(4-hydroxyphenethyl)-6,7-dihydroxy-isoindolin-1-one]: in assay [2] (setting [4]), the EC50 is 19 µM.

For the compound `NC(=O)c1ncn([C@@H]2O[C@H](CO)[C@@H](O)[C@H]2O)n1` [Ribavirin, ribavirin], the EC50 in assay [2] (setting [3]) is 11 µM.

baloxavir acid [BXA]: the “Fold increase in EC50 compared to wild-type” value in assay [2] was 1.0 fold. In assay [2] (setting [4]), the EC50 worked out at 0.0016 µM.
